Measured values as given in the supplement of paper PMC10307832.

Legend:
Test in all cases: relative viability (nuclei count vs DMSO), 5 days (fraction); higher = more cells survive
[1] = compound: CN(c1ncccc1CNc1nc(Nc2ccc3c(c2)CC(=O)N3)ncc1C(F)(F)F)S(C)(=O)=O + CCNC(=O)c1noc(-c2cc(C(C)C)c(O)cc2O)c1-c1ccc(CN2CCOCC2)cc1 [Luminespib] (partner 0.01 µM)
Outline: (§1)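 Relative viability equals treated-well nuclei counts divided by vehicle-well nuclei counts. Counts came from 4× images of lung cancer cell lines grown in 1536-well plates for 5 days after pin-tool dosing on the day after seeding. Dosing used one drug alone or a fixed anchor-drug dose plus five library-drug doses (not always all listed) in √10 steps, and values are medians of duplicate plates.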

[2] = compound: CN(c1ncccc1CNc1nc(Nc2ccc3c(c2)CC(=O)N3)ncc1C(F)(F)F)S(C)(=O)=O + CC1(C)CCC(c2ccc(Cl)cc2)=C(CN2CCN(c3ccc(C(=O)NS(=O)(=O)c4ccc(N[C@H](CCN5CCOCC5)CSc5ccccc5)c(S(=O)(=O)C(F)(F)F)c4)cc3)CC2)C1 [Navitoclax] (partner 0.5 µM)
Outline: as §1

[3] = compound: CN(c1ncccc1CNc1nc(Nc2ccc3c(c2)CC(=O)N3)ncc1C(F)(F)F)S(C)(=O)=O + C[C@]1(O)C[C@@H](c2nc(-c3ccc4ccc(-c5ccccc5)nc4c3)c3c(N)nccn32)C1 [Linsitinib] (partner 1 µM)
Outline: as §1

[4] = compound: CN(c1ncccc1CNc1nc(Nc2ccc3c(c2)CC(=O)N3)ncc1C(F)(F)F)S(C)(=O)=O + COc1cc2c(Oc3ccc(NC(=O)C4(C(=O)Nc5ccc(F)cc5)CC4)cc3F)ccnc2cc1OCCCN1CCOCC1 [Foretinib] (partner 0.25 µM)
Outline: as §1

Cell Line	relative viability ([1]; first compound 0.01 µM)	relative viability ([1]; first compound 0.03162 µM)	relative viability ([1]; first compound 0.1 µM)	relative viability ([1]; first compound 0.3162 µM)	relative viability ([1]; first compound 1 µM)	relative viability ([2]; first compound 0.01 µM)	relative viability ([2]; first compound 0.03162 µM)	relative viability ([2]; first compound 0.1 µM)	relative viability ([2]; first compound 0.3162 µM)	relative viability ([2]; first compound 1 µM)	relative viability ([3]; first compound 0.01 µM)	relative viability ([3]; first compound 0.03162 µM)	relative viability ([3]; first compound 0.1 µM)	relative viability ([3]; first compound 0.3162 µM)	relative viability ([3]; first compound 1 µM)	relative viability ([4]; first compound 0.01 µM)	relative viability ([4]; first compound 0.03162 µM)	relative viability ([4]; first compound 0.1 µM)	relative viability ([4]; first compound 0.3162 µM)	relative viability ([4]; first compound 1 µM)
201T	1.05	1	0.945	0.986	0.951	1.21	1.26	1.18	1.16	1.15	1.05	1.04	1.04	1.01	0.995	1.06	1.09	1.09	0.928	1.02
A549						1.19	1.07	1.26	1.13	1.1	0.526	0.761	0.558	0.606	0.694	0.995	0.948	0.958	0.945	0.933
A-427	0.908	1.1	0.832	0.921	0.905	0.999	0.973	1.02	0.973	0.945	1.12	1.12	1.1	1.14	1.06	1.04	1.18	1.01	1.16	1.07
ABC-1	0.557	0.985	0.511	0.524	0.516						0.908	0.914	0.75	0.814	0.967	1.11	1.2	1.01	0.92	0.936
BEN	0.392	0.313	0.863	0.289	0.328	0.0691	0.0546	0.0649	0.0815	0.0763	0.912	0.972	0.938	0.879	1.04	0.815	0.608	0.618	0.587	0.845
CAL-12T	0.284	0.55	0.451	0.258	0.277	1.25	1.1	1.27	1.27	0.883	0.886	0.861	0.705	0.616	0.639	1.32	1.2	1.1	1.1	0.838
COR-L23	0.622	1	0.656	0.734	0.41	0.929	1.09	0.933	1.01	0.826	0.853	0.983	0.818	1.07	0.735	1.07	1.15	0.937	0.921	0.851
COR-L 105	0.691	0.712	0.809	0.766	0.526	0.773	0.833	0.869	0.777	0.493	0.964	1	1.09	0.882	0.67	1	1.27	0.989	0.848	0.773
Calu-6						0.848	0.863	0.78	0.777	0.772	1.05	0.992	0.892	0.955	0.914	0.936	0.989	0.808	0.955	0.812
ChaGo-K-1	0.479	0.629	0.635	0.706	0.556	1.04	0.819	1.11		1.08						0.968	0.894	0.946	0.935	0.782
EKVX	0.923	1.03	0.839	0.869	0.786	0.974	1.02	0.944	0.852	0.81	0.94	1.13	0.85	0.931	0.882	0.815	0.924	1.15	0.741	0.802
EMC-BAC-2	1.16	1.27	1.17	1.16	0.994	1.18	1.24	1.05	1.16	1.2	0.797	0.838	0.792	0.79	0.804	0.933	1.18	0.989	0.944	0.943
EPLC-272H	0.6	0.487	0.265	0.317	0.251	1.28	1.08	1.16	1.35	0.97	1.21	1.12	1.22	1.33	1.12	0.569	0.776	0.727	0.844	0.69
H3255	1.03	0.963	0.796	0.933	0.904	0.606	0.518	0.616	0.475	0.35	0.924	0.949	0.988	0.912	0.922	0.88	0.818	0.867	0.981	0.769
HARA	0.589	0.887	0.602	0.606	0.549	1.18	1.19	1.14	0.91	0.968	0.945	1.06	1.03	0.978	0.856	1.06	0.864	0.905	0.871	0.664
HCC-15	0.543	0.456	0.349	0.407	0.301	0.716	0.745	0.639	0.579	0.507	0.898	0.894	0.802	0.86	0.688	0.968	1.06	0.963	0.951	0.916
HCC-44	1.04	1.5	1.24		0.933	0.977	1.15	0.951	0.905	0.756	0.73	0.688	0.722	0.714	0.664					
HCC-78						0.81	0.845	0.73	0.632	0.674	0.654	0.578	0.425	0.439	0.486	0.543	0.571	0.533	0.562	0.514
HCC-366						1.03	1.18	1.08	1.04	0.927	0.488	0.913	0.591	0.576	0.508	0.899	0.925	0.942	0.982	0.781

Cell Line	relative viability ([1]; first compound 0.01 µM)	relative viability ([1]; first compound 0.03162 µM)	relative viability ([1]; first compound 0.1 µM)	relative viability ([1]; first compound 0.3162 µM)	relative viability ([1]; first compound 1 µM)	relative viability ([2]; first compound 0.01 µM)	relative viability ([2]; first compound 0.03162 µM)	relative viability ([2]; first compound 0.1 µM)	relative viability ([2]; first compound 0.3162 µM)	relative viability ([2]; first compound 1 µM)	relative viability ([3]; first compound 0.01 µM)	relative viability ([3]; first compound 0.03162 µM)	relative viability ([3]; first compound 0.1 µM)	relative viability ([3]; first compound 0.3162 µM)	relative viability ([3]; first compound 1 µM)	relative viability ([4]; first compound 0.01 µM)	relative viability ([4]; first compound 0.03162 µM)	relative viability ([4]; first compound 0.1 µM)	relative viability ([4]; first compound 0.3162 µM)	relative viability ([4]; first compound 1 µM)
HCC-827	0.346	0.612	0.595	1.02	0.629	1.01	1	0.995	1.04	0.915	0.999	0.915	0.93	0.905	0.914	0.985	1.05	1.15	1.04	1.05
HOP-62	0.969	0.933	0.949	0.932	0.699	1.18	1.07	0.94	1.04	0.934	0.843	1.09	1.06	0.786	0.933	1.04	1.16	0.958	1.02	1.03
IA-LM						0.712	0.726	0.786	0.788	0.654	0.6	0.54	0.583		0.599	1.25	1.17	0.917	1.27	0.874
LC-2-ad	1.22	1.05	0.967	0.98	0.845	0.556	0.479	0.433	0.364	0.322	0.85	0.784	0.862	0.786	0.847	0.851	0.865	0.967	0.939	0.933
LCLC-97TM1	0.779	0.854	0.788	0.81	0.632		0.394	0.25	0.381	0.385		0.226	0.167	0.216	0.152	0.97	0.986	0.867	0.864	0.844
LCLC-103H	0.754	0.927	0.918	0.892	0.752						1.1	1.1	0.983	0.977	0.88	0.677	0.751	0.765	0.766	0.759
LK-2	0.175	0.174	0.165	0.201	0.235	1.04	1.03	1.02	0.809	0.773	0.631	0.534	0.546	0.526	0.766	1.02	1.06	1.21	1.3	1.52
NCI-H358	0.292	0.465	0.397	0.247	0.214						0.739	0.727	0.626	0.705	0.666	0.717	0.659	0.782	0.638	0.517
NCI-H650	0.773	0.779	0.655	0.728	0.654						0.948	0.696	0.644	0.764	0.76	1.02	0.953	0.935	0.796	0.853
NCI-H661	0.854	0.928	0.837	0.871	0.876						0.657	0.722	0.563	0.679	0.637	1.01	1.04	0.989	0.993	0.92
NCI-H1299						1.04	1.05	1.06	1.07	1.04	1.06	1.05	0.961	0.976	0.986	1.12	1.1	1.05	1.09	1.08
NCI-H1563	0.538	0.528	0.53	0.482	0.547						1.16	1.23	1.31	1.07	1.06	0.996	0.907	1.04	0.899	0.863
NCI-H1650	0.203	0.207	0.194	0.193	0.198	1.26	1.39	1.39		0.76						1.12	1.25	1.38	1.19	0.971
NCI-H1703						0.951	1.12	1.03	1.11	1.02	0.692	0.647	0.756	0.836	0.637	0.37	0.3	0.36	0.332	0.349
NCI-H1792	0.387	0.54	0.467	0.451	0.359	0.629	0.536	0.578	0.642	0.581	0.442	0.487	0.512	0.566	0.559					
NCI-H2170	0.722	0.799	0.707	0.749	0.424	0.675	0.62	0.687		0.554						1.02	1.02	1.01	1.02	0.949
NCI-H2342	0.702	0.736	0.643	0.632	0.723											1.15	0.976	0.927	0.953	0.999
SW 900	0.216	0.2	0.19	0.154	0.168											0.796	0.964	0.872	0.894	0.566
